Measured values: EP0538469A1, “SULFONANILIDE DERIVATIVE AND MEDICINE” (NIPPON SHINYAKU COMPANY, LIMITED, priority 1990, dated 1991)
Where two headings read alike, the source gives them in different places. Marks after values point to notes of the source that are not given here.

Tests used:
smooth muscle of urethra = test: Contraction of isolated smooth muscle of urethra (Magnus vessel, cumulative concentration/response curves); type: cell-based, rabbits; conditions: for EC50: Oryctolagus cuniculus
Method: (§1) The experiment was conducted using female rabbits of 2 to 3.5 kg body weight.
(§2) The animals were killed by draining the blood out under anesthetizing with pentobarbital (30 mg/kg, by intravenous injection) and smooth muscle of urethra and femoral artery were excised. Each of the excised samples was placed in a Magnus vessel filled with a modified Krebs solution (at 37°C; under mixed gas) and both smooth muscle of urethra and femoral artery were suspended with 1 g load.
(§3) The drug to be tested was accumulated to contract the samples whereby the concentration/response curves were obtained wherefrom ED₅₀ (M) and pD₂ were calculated and the selectivity to urethra was determined.

femoral artery = test: Contraction of isolated femoral artery (Magnus vessel, cumulative concentration/response curves); type: cell-based, rabbits; conditions: Oryctolagus cuniculus
Method: as §1, §2, §3

α₁-adrenoceptors = test: α₁-Adrenoceptor binding assay with [³H]-prazosin, brain membrane; set-up: species or system Rats
Method: Preparation of the receptor membrane was conducted as follows. Rats were decapitated, brain except cerebellum was excised, weighed, 40 times as much 50mM Tris-hydrochloric acid buffer (pH: 7.4) was added and the mixture was homogenized with a Polytron homogenizer and centrifuged for 20 minutes at 39,000 x g. Buffer solution was added to the precipitate and the resulting suspension was again centrifuged for 20 minutes. Then the precipitate was suspended in 40 volumes of Tris-hydrochloric acid buffer to prepare a receptor sample. The above operations were all conducted at 4°C.
α ₁-Adrenoceptor binding assay was conducted as a radioactive ligand using a [³H]-prazosin.
First, the receptor sample prepared as above was incubated in 50 mM Tris-hydrochloric acid buffer (pH 7.4) with [³H]-prazosin (0.2nM) at 25°C for 30 minutes. […] The mixture was allowed to stand at room temperature for not shorter than about 10 hours and the radioactivity was measured with a liquid scintillation counter to give a total binding.
The same reaction as above was conducted in the presence of 1 µM of prazosin as well and the resulting radioactivity was defined as nonspecific binding. […]
The inhibition activity of the test drug to the [³H]-prazosin binding was calculated by measuring the amount of the specific [ ³H] -prazosin binding in the presence of various concentrations of the drug. […]

male rabbits [1] = test: Action to intra urethral pressure and blood pressure, intravenous administration; type: in vivo
Method: (§4) The experiment was conducted using male rabbits of body weight of 1.4-3.1 kg under fasted condition. The animals were fixed at backs under uretrane(1.2g/kg s.c.) anesthesia, abdomen was subjected to a midline incision and bladder was exposed. In order to prevent the urine stored in the bladder on the intra urethral pressure, the urine in the bladder was compulsorily discharged out of the body. After that, a catheter was inserted into both ureters and the urine discharged from kidney was introduced outside.
(§5) The intra urethral pressure(IUP) at the urethra tract of about 0.5-1 cm distance from the neck of the bladder was measured using a microtip transducer transducer equipped with a baloon (filled with physiological saline solution) at the top end. Further, polyethylene tube was inserted into femoral artery to measure the blood pressure (BP).
The drug to be tested was injected into the vein of ear every fifteen minutes and the maximum responses of the increasing action of intra urethral pressure tract and of the increasing action of blood pressure were measured at each dose.

male rabbits [2] = test: Action to intra urethral pressure and blood pressure, administration to duodenum; type: in vivo
Method: as §4, §5
Abdomen right above stomach was subjected to a midline incision and, after that, the drug to be tested suspended in 0.5% methyl cellulose (0.5% MC) was administered at the dose of 0.5ml/kg to the duodenum. […] The above administration to duodenum corresponded to oral administration as the administration into digestive organ in anethetized animals.

mice (ddY-strain, male) = test: Acute toxicity, oral, mice; type: in vivo; conditions: observed two weeks
Method: (§6) Numbers of mice (ddY-strain, male, 6-8 weeks age) and rats (SD strain, male, 6-7 weeks age) in each group were 4 and 6, respectively.
(§7) The drug to be tested was orally administered at the dose of 10 ml/kg using an oral probe to the animals which were fasted since one day before (for 16-18 hours). After giving the drug, the animals were returned to the state where both feed and water were available and the general symptom and the dead cases, if any, were checked for two weeks. The drug was suspended in physiological saline solution containing 0.5% of methylcellulose (0.5% MC) and the suspension was given to the animals by oral route.

[3] = Acute toxicity, oral, rats; type: in vivo; conditions: rat, in vivo, SD rats, read-out: Rats LD₅₀
Method: as §6, §7

rats (SD strain, male) = test: Acute toxicity, oral, rats; type: in vivo; conditions: observed two weeks
Method: as §6, §7

[4] = 0.1 mg/kg i.d., 10 min after administration
[5] = 0.1 mg/kg i.d., 20 min after administration
[6] = 0.1 mg/kg i.d., 30 min after administration
[7] = 0.1 mg/kg i.d., 60 min after administration
[8] = 0.1 mg/kg i.d., 90 min after administration
[9] = 0.1 mg/kg i.d., 120 min after administration
[10] = 0.1 mg/kg i.d., 180 min after administration
[11] = 0.3 mg/kg i.d., 10 min after administration
[12] = 0.3 mg/kg i.d., 20 min after administration
[13] = 0.3 mg/kg i.d., 30 min after administration
[14] = 0.3 mg/kg i.d., 60 min after administration
[15] = 0.3 mg/kg i.d., 90 min after administration
[16] = 0.3 mg/kg i.d., 120 min after administration
[17] = 0.3 mg/kg i.d., 180 min after administration

CS(=O)(=O)Nc1ccc(F)c([C@@H](O)CN)c1.Cl [(49B), (R)-(-)-3'-(2-Amino-1-hydroxyethyl)-4'-fluoromethanesulfonanilide hydrochloride]
Selectivity (B/A) (smooth muscle of urethra; ED₅₀ femoral artery / ED₅₀ urethra): 0.73 | EC50 (smooth muscle of urethra; read-out: ED₅₀ Urethra(A)): 4.41 µM | EC50 (smooth muscle of urethra; read-out: pD₂ Urethra(A)): 4.37 µM | EC50 (femoral artery; read-out: ED₅₀ Femoral Artery(B)): 3.21 µM | EC50 (femoral artery; read-out: pD₂ Femoral Artery(B)): 3.24 µM | inhibiting action to binding of [³H]-prazosin, stronger than amidephrine (α₁-adrenoceptors; relative to amidephrine): about twice | inhibiting action to binding of [³H]-prazosin, stronger than phenylephrine (α₁-adrenoceptors; relative to phenylephrine): about five times | Selectivity (B/A) (male rabbits [1]; BP(ED30%↑) / IUP(ED150%↑), i.v.): 5.3 | ED (30%) (male rabbits [1]; Oryctolagus cuniculus, iv, read-out: BP(B) [BP(ED30%↑)]): 0.048 mg/kg | Change(%) BP (male rabbits [2]; [4]): 2.7% | Change(%) BP (male rabbits [2]; [5]): 1.9% | Change(%) BP (male rabbits [2]; [6]): 3.3% | Change(%) BP (male rabbits [2]; [7]): 0.5% | Change(%) BP (male rabbits [2]; [8]): -5.0% | Change(%) BP (male rabbits [2]; [9]): -9.8% | Change(%) BP (male rabbits [2]; [10]): -14.9% | Change(%) BP (male rabbits [2]; [11]): 2.8% | Change(%) BP (male rabbits [2]; [12]): 4.0% | Change(%) BP (male rabbits [2]; [13]): 4.7% | Change(%) BP (male rabbits [2]; [14]): 7.9** % | Change(%) BP (male rabbits [2]; [15]): 6.5** % | Change(%) BP (male rabbits [2]; [16]): 3.3* % | Change(%) BP (male rabbits [2]; [17]): -10.0% | Change(%) IUP (male rabbits [2]; [4]): 10.5% | Change(%) IUP (male rabbits [2]; [5]): 11.0% | Change(%) IUP (male rabbits [2]; [6]): 20.7% | Change(%) IUP (male rabbits [2]; [7]): 29.4% | Change(%) IUP (male rabbits [2]; [8]): 28.9% | Change(%) IUP (male rabbits [2]; [9]): 30.3% | Change(%) IUP (male rabbits [2]; [10]): 24.1% | Change(%) IUP (male rabbits [2]; [11]): 21.5% | Change(%) IUP (male rabbits [2]; [12]): 44.2** % | Change(%) IUP (male rabbits [2]; [13]): 65.2* % | Change(%) IUP (male rabbits [2]; [14]): 84.1** % | Change(%) IUP (male rabbits [2]; [15]): 114.9* % | Change(%) IUP (male rabbits [2]; [16]): 101.5** % | Change(%) IUP (male rabbits [2]; [17]): 95.7** % | dose resulting in intraurethral pressure increasing action of the same grade as known amidephrine (male rabbits [2]; administration to digestive organ, relative to amidephrine dose): about one-tenth | Mice Dead/ Total (mice (ddY-strain, male); 1000 mg/kg): 0 / 4 | Mice Dead/ Total (mice (ddY-strain, male); 3000 mg/kg): 0 / 4 | LD50 at 336 h [3]: > 1000 mg/kg | Rats Dead/ Total (rats (SD strain, male); 500 mg/kg): 0 / 6 | Rats Dead/ Total (rats (SD strain, male); 1000 mg/kg): 0 / 6
